Measurements: patent US10287267B2, “Isoquinolin-3-yl carboxamides and preparation and use thereof” (Samumed, LLC, priority 2016, dated 2019)

What was measured:
[1] = tested on: SW480 colon carcinoma cells; test: Cell viability assay (CellTiter-Glo); format: cell-based, human; conditions: Homo sapiens; for EC50: 96 h, SW480 cells, CellTiter-Glo, four days incubation
[2] = biological target: recombinant DYRK1A kinase (Homo sapiens (Human), UniProt Q13627); test: DYRK1A kinase assay (Ser/Thr 18 peptide Z-lyte FRET); format: biochemical; conditions: 30 μM ATP, 1 h room temperature;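 also: Read-out is the coumarin to fluorescein emission ratio, referenced to unphosphorylated (0%) and phosphorylated (100%) Ser/Thr 18 peptide controls, values from dose-response curves by non-linear regression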
[3] = tested on: α-smooth muscle actin (αSMA) positive LL29 cells; test: Inhibition of fibrotic process: αSMA in TGF-β1 treated primary human fibroblasts from IPF patients; format: cell-based; conditions: Homo sapiens, Fibroblast; for EC50: 96 h, Table 8, LL29 fibroblasts from IPF patients, TGF-β1 20 ng/mL, 4 days, dose-response 10 μM to 0.94 nM;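 as to all read-outs here: controls were TGF-β1 stimulated wells with DMSO vehicle (positive) and cells given DMSO alone (negative), cultured in F12 medium with 1% fetal bovine serum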
IL-6 = IL-6 inhibition in LPS-stimulated human peripheral blood mononuclear cells (HTRF); format: cell-based; conditions: Homo sapiens, PBMC; for EC50: Table 9, huPBMCs, LPS 50 ng/mL, 22 hours, dose-response starting from 10 μM;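 as to all read-outs here: IL-6 detected by HTRF with an XL665- and Cryptate-labelled anti-IL-6 antibody pair, samples run in duplicate, EC50 obtained from a four-parameter Levenberg-Marquardt curve fit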
Description: After 22 hour incubation, a mixture of anti-IL6 XL665 and anti-IL-6 Cryptate diluted in reconstitution buffer (Catalog #62IL6PEC, Cisbio Inc., Bedford, Mass.) was added to each well. […] All samples were processed in duplicate. […] EC50 was determined using software generated by Dotmatics Limited (Windhill Bishops Stortford Herts, UK) using the Levenberg-Marquardt 4 parameter fitting procedure with finite different gradients.

[4] = tested on: Wnt pathway (Sp5-Luc reporter, TCF/LEF binding sites) in SW480 colon carcinoma cells; test: Screening assay for Wnt activity: Sp5-Luc reporter gene assay; format: cell-based, human; conditions: Homo sapiens; for EC50: Sp5-Luc reporter, SW480 cells, 36 to 48 hours;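 as to all read-outs here: firefly luciferase luminescence read in stably transduced SW480 cells carrying the Sp5 promoter reporter with eight TCF/LEF sites, compounds given in 0.1% DMSO final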
Description: The screening assay for Wnt activity is described as follows.
Following incubation, 15 μl of BriteLite Plus luminescence reagent (Perkin Elmer) was added to each well of the 384-well assay plates. The plates were placed on an orbital shaker for 2 min and then luminescence was quantified using the Envision (Perkin Elmer) plate reader.

recombinant GSK3β kinase = recombinant GSK3β kinase (Homo sapiens (Human), UniProt P49841); test: GSK3β kinase assay (Ser/Thr 09 peptide Z-lyte FRET); format: biochemical; conditions: 46 μM ATP, 1 h room temperature;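 also: kinase activity read as coumarin to fluorescein emission ratio, 11-point threefold dilutions from 10 µM to 0.0003 µM in duplicate, unphosphorylated and phosphorylated peptide as 0% and 100% controls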
[5] = tested on: Tau phosphorylation at Ser396 (pSer396); test: Tau phosphorylation assay (pSer396 ELISA / western blot) in SH-SY5Y cells; format: cell-based, human; conditions: Homo sapiens; SH-SY5Y cells, overnight (16-18 h) exposure; read-out: pSer396 Tau EC50;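 also: EC50 for reduction of Tau pSer396 in lysed cells, measured by colorimetric ELISA or chemiluminescent western blot, both using the same pSer396 antibody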
[6] = read-out: percent value in parentheses beside EC50 >10 μM
[7] = SW480, read-out: percent inhibition at 10 μM

Sequence of recombinant GSK3β kinase (P49841 whole entry): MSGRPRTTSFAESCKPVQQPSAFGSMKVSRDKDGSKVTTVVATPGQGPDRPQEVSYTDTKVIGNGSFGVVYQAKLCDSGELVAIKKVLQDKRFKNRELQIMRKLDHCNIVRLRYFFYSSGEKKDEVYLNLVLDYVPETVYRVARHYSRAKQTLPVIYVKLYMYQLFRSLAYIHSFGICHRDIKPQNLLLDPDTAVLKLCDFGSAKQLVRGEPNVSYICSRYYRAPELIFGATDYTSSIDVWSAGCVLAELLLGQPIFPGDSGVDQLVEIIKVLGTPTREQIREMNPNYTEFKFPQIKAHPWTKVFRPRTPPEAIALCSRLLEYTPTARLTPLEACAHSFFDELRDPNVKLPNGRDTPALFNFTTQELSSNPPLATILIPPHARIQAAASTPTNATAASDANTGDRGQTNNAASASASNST

| SMILES | EC50 [1] [nM] | EC50 [2] [nM] | EC50 [3] [nM] | EC50 (IL-6) [µM] | EC50 [4] [nM] | EC50 (recombinant GSK3β kinase) [nM] | EC50 [5] [nM] | inhibition at 10 µM [3, 6] [%] | inhibition at 10 µM [1, 7] [%] | inhibition at 10 µM (IL-6; [6]) [%] | inhibition at 10 µM [4, 7] [%] |
| --- | --- | --- | --- | --- | --- | --- | --- | --- | --- | --- | --- |
| CCN(CC)CC(=O)Nc1cc2cc(-c3cnn(C)c3CN3CCCCC3)ccc2cn1 [Compound 785, 2-(Diethylamino)-N-(6-(1-methyl-5-(piperidin-1-ylmethyl)-1H-pyrazol-4-yl)isoquinolin-3-yl)acetamide] | 2860 | 10.1 | 1170 | 9.15 | 2840 | 44 | 485 |  |  |  |  |
| Cn1ncc(-c2ccc3cnc(NC(=O)C4CC5(C4)CN(CCF)C5)cc3c2)c1CN1CCCCC1 [Compound 791, 2-(2-Fluoroethyl)-N-(6-(1-methyl-5-(piperidin-1-ylmethyl)-1H-pyrazol-4-yl)isoquinolin-3-yl)-2-azaspiro[3.3]heptane-6-carboxamide] | 137 | 2.2 | 67 | 0.35 | 212 | 5 | 55 |  |  |  |  |
| CO[C@H]1CC[C@H](C(=O)Nc2cc3cc(-c4cnn(C)c4CN4CCCCC4)ccc3cn2)CC1 [Compound 795, trans-4-Methoxy-N-(6-(1-methyl-5-(piperidin-1-ylmethyl)-1H-pyrazol-4-yl)isoquinolin-3-yl)cyclohexane-1-carboxamide] | 806 | 2.4 | 227 | 1.22 | 471 | 33 | 401 |  |  |  |  |
| Cn1ncc(-c2ccc3cnc(NC(=O)[C@H]4CCCN4)cc3c2)c1CN1CCCCC1 [Compound 803, (R)—N-(6-(1-Methyl-5-(piperidin-1-ylmethyl)-1H-pyrazol-4-yl)isoquinolin-3-yl)pyrrolidine-2-carboxamide] | 4530 | 12.6 | > 10000 | 3.32 | 3550 | 164 | 3700 | 27.8 |  |  |  |
| CC(C)CN1CCC(C(=O)Nc2cc3cc(-c4cnn(C)c4CN4CCCCC4)ccc3cn2)CC1 [Compound 822, 1-isobutyl-N-(6-(1-methyl-5-(piperidin-1-ylmethyl)-1H-pyrazol-4-yl)isoquinolin-3-yl)piperidine-4-carboxamide] | 708 | 4.1 | 212 | 3.26 | 517 | 9 | 247 |  |  |  |  |
| Cn1ncc(-c2ccc3cnc(NC(=O)C4CCN(C5COC5)CC4)cc3c2)c1CN1CCCCC1 [Compound 826, N-(6-(1-Methyl-5-(piperidin-1-ylmethyl)-1H-pyrazol-4-yl)isoquinolin-3-yl)-1-(oxetan-3-yl)piperidine-4-carboxamide] | 897 | 3.9 | 149 | 3.29 | 603 | 7 | 568 |  |  |  |  |
| Cn1ncc(-c2ccc3cnc(NC(=O)C4CCN(C(=O)c5ccccc5)CC4)cc3c2)c1CN1CCCCC1 [Compound 831, 1-Benzoyl-N-(6-(1-methyl-5-(piperidin-1-ylmethyl)-1H-pyrazol-4-yl)isoquinolin-3-yl)piperidine-4-carboxamide] | 911 | 3.2 | 244 | 0.812 | 706 | 10 | 189 |  |  |  |  |
| CC1CCN(CC(=O)Nc2cc3cc(-c4cnn(C)c4CN4CCCCC4)ccc3cn2)CC1 [Compound 851, N-(6-(1-Methyl-5-(piperidin-1-ylmethyl)-1H-pyrazol-4-yl)isoquinolin-3-yl)-2-(4-methylpiperidin-1-yl)acetamide] | > 10000 | 5010 | 692 | > 10 | > 10000 | 5000 | 350 |  | 30.4 | 2.9 | 6.4 |
